# Target: T1, Htm1p-Pdi1p (Saccharomyces cerevisiae, UniProt P38888)
# T1 construct: gene MNL1; full-length HTM1 coding region with C-terminal 3xFLAG-HDEL tag (released by TEV), chromosomal TDH3 promoter, strain yJW1820; co-purified with endogenous Pdi1p, near 1:1; with Protein disulfide-isomerase
# T1 sequence (P38888 21-796): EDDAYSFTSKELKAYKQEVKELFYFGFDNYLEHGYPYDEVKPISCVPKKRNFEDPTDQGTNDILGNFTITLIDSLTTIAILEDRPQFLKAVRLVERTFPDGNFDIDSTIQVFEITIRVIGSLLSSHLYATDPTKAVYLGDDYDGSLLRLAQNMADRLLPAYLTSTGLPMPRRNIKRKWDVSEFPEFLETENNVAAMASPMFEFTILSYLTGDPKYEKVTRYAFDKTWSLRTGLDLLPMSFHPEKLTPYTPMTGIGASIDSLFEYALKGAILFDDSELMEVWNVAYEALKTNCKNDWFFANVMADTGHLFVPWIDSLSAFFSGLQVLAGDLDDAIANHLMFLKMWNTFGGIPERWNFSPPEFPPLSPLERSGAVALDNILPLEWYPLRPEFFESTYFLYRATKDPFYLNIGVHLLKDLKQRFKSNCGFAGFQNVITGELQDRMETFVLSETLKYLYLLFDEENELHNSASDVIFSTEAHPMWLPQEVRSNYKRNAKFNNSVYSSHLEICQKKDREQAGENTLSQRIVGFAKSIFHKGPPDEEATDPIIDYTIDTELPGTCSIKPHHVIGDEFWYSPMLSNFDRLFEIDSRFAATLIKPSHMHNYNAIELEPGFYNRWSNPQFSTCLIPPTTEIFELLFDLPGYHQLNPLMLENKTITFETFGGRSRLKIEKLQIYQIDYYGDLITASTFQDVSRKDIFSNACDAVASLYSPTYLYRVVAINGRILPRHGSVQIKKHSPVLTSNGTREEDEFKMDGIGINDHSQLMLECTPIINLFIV
# T1 sequence (P17967 29-522 partner): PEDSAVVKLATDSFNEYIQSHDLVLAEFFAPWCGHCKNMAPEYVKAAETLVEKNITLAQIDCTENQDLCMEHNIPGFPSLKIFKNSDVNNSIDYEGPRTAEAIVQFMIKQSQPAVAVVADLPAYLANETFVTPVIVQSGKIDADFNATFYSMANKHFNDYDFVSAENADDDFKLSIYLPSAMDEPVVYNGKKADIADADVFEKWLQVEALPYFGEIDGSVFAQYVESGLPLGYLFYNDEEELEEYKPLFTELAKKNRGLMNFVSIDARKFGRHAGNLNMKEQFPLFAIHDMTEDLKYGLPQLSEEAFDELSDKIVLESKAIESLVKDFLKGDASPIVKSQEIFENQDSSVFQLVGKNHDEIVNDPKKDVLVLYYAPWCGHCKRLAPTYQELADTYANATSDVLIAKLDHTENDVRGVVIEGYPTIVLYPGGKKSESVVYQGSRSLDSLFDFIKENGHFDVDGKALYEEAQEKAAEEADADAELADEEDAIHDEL
# Assay: MALDI-TOF MS glycan profiling of CPY* (Man8 to Man7 conversion)
# Type: biochemical
# Conditions: glycoprotein substrate CPY* 2 μM, enzyme 0.1 μM, 2 mM CaCl2, pH 7.0, 30°C, 20 h; inhibitor concentration not given
structure (smiles),measurement,value
OC[C@H]1NC[C@@H](O)[C@@H](O)[C@@H]1O [1-deoxymannojirimycin],MALDI-TOF MS glycan profiling of CPY* (Man8 to Man7 conversion),Both chemicals inhibited the generation of Man7 on CPY*

# From article doi:10.1101/049825v1, “Htm1p-Pdi1p is a folding sensitive mannosidase that marks N-glycoproteins for ER-associated protein degradation” (biorxiv, 2016)
